In patent US7279497B2, “Benzopyran derivatives substituted with secondary amines including imidazole, their preparation and pharmaceutical compositions containing them” (Korea Research Institute of Chemical Technology, priority 2002, dated 2007):

Legend:
isolated rat aorta = experiment: Vasorelaxation effects on isolated blood vessels (methoxamine induced vasoconstriction); conditions: rat aorta constricted with methoxamine (3 μM)
Method: The following experiment was conducted to examine whether the compounds of the formula 1 have vasorelaxation effects.
Male Sprague-Dawly rats (350-450 g, obtained from the Experimental Animal Team of the Korea Research Institute of Chemical Technology) were knocked unconscious by hitting the occipital region, sacrificed by cervical dislocation, and underwent thoracotomy. After being quickly removed, the thoracic aorta was deprived of the adipose tissue and cut into aortic rings of 3 mm width. The aorta was lightly rubbed with a modified Krebs Henseleit buffer (Physiological Salt Solution, PSS) soaked cotton club to remove the inner epithelial layer therefrom. While being suspended in an organ bath containing a physiological buffer, the vascular tissue was allowed to equilibrate under a resting tension of 2 g and then, stand for 1 hour at 37° C. for stabilization with a supply of a carbogen consisting of 95% O2-5% CO2.
Thereafter, the vascular tissue was constricted with 10^−5 M phenylephrine and washed several times with PSS and this procedure was repeated again to ensure the stable reactivity of vascular smooth muscle to repetitive constriction/dilatation.
In addition, 3×10^−6 M methoxamine was used to induce an intensive constriction in the vascular smooth muscle. When the vasoconstriction induced by the methoxamine reached and maintained a maximum, test compounds and controls were cumulatively added to the organ baths in concentrations of 1, 3, 10 and 30 μM so as to induce vasodilatation. Cromakalim, BMS-180448, and BMS-191095 were used as the controls.
Following the addition of test compounds, the change in the maximal constriction induced by methoxamine was calculated to plot a concentration-relaxation response curve. Through a linear regression analysis, IC50, the drug concentration at which the vascular tissue is 50% dilated, was obtained for each compound.

isolated rat hearts = experiment: Cardioprotective activity in isolated ischemic rat heart (Langendorff); conditions: 10 μM
Method: In order to determine whether the compounds of the chemical formula 1 are protective for ischemic hearts in vitro, experiments determining the anti-ischemic effects of the compounds on isolated rat hearts were conducted as follows.
For all in vitro studies, isolated rat hearts were used according to the published methods after some modification [HJ Ring, Arzneim.-Forsch./Drug Res. 39 (II), 1535 (1989): T. Krzeminski, et al., J. Pharmacological Methods, 25, 95, (1991)]
Male Sprague-Dawley rats weighing 300-450 g were anesthetized with sodium pentobarbital (100 mg/kg, i.p.). The tail vein was injected with heparin (1,000 U/kg) and then the trachea was intubated. While rats were mechanically ventilated with a rodent ventilator (Model 7025, Ugobasile, Italy), their hearts were perfused in situ with oxygenated modified Krebs-Henseleit bicarbonate buffer (described herein) by retrograde aortic cannulation. The hearts were then excised and moved to a Langendorff apparatus (H.S.E., Germany), where they were perfused with oxygenated modified Krebs-Henseleit bicarbonate buffer containing (in mM) NaCl 116, NaHCO3 24.9, KCl 4.7, MgSO4 1.1, KH2PO4 1.17, CaCl2 2.52, glucose 8.32 and pyruvate 2.0 at a constant perfusion pressure (85 mm Hg). A latex balloon filled with solvent (ethanol:water=1:1 (v/v)) and attached to a metal cannula was placed in the left ventricle through pulmonary vein and connected to a Isotec pressure transducer (H.S.E., Germany) for measurement of left ventricular pressure (LVP). The hearts were allowed to equilibrate for 15 min, at which time left ventricular end-diastolic pressure (EDP) was adjusted to 5 mm Hg and this balloon volume was maintained throughout the experiment. Then, baseline contractile function, heart rate (HR), and coronary flow (CF) (extracorporeal electromagnetic flow probe, Narco Bio-System, U.S.A.) were measured. Cardiac contractile function was calculated by subtracting LVEDP from LV peak systolic pressure (LVSP), yielding developed pressure (LVDP). Double product (DP), another important parameter for assessing cardiac performance, was calculated by multiplying HR by LVDP. Throughout the experiment, all these parameters were measured, and calculated before and 10 min after pretreatment with each compound and 30 min after the onset of reperfusion with buffer. Data on reperfusion DP were further expressed as the percentage to pretreatment DP.
After stabilization for 15 min, the hearts were pretreated for 10 min with respective drugs (10 μM, 0.04% DMSO) or vehicle (0.04% DMSO) before onset of global ischemia; test agents were administered directly into the oxygenator of the Langendorff apparatus immediately above the aortic root in a retrograde fashion as solutions in the perfusate. We then rendered the hearts globally ischemic by completely shutting off the perfusate for 30 min. Severity of ischemia was determined as the time to contracture (TTC, min) during global ischemia in which the first 5 mmHg increase in EDP was observed. Then, the hearts were reperfused and, 30 min later, contractile function (LVDP, DP) and cumulative reperfusion lactate dehydrogenase (LDH) release were measured. LDH was measured as a sensitive index for loss of cell viability with a kit supplied by Boerhinger Mannheim based on the technique of Wroblewski and LaDue [F. Wroblewski and J S. La Due, Proc Soc Exp Biol Med 90, 210, (1955)].

ischemic hearts = experiment: Cardioprotective activity in ischemic heart model of anesthetized rats; conditions: Rat in vivo, 0.3 mg/kg i.v.
Method: In order to determine whether the compounds of formula 1 are protective for ischemic hearts, experiments determining the anti-ischemic effects of the compounds on rats were conducted as follows. Male rats (350-450 g, obtained from the Experimental Animal Team of the Korea Research Institute of Chemical Technology) were anesthetized by the intraperitoneal injection of pentobarbital at a dose of 75 mg/kg. After trachetomy, the rats were rendered to respire artificially at a rate of 60/min with a stroke volume of 10 ml/kg. Cannulars were inserted into the fermoral vein and the fermoral artery and used for drug administration and blood pressure measurement, respectively. In the ischemic myocardial injury models, the body temperature has an important influence on the results. To avoid the change in the body temperature, a body temperature measuring probe was inserted into the rectum of each rat and the body temperature was constantly kept at 37° C. with the aid of a homeothermic blanket control unit. Afterwards, during testing, a continuous measurement was made of the mean arterial blood pressures and heart rates from the rats. For the measurement of the blood pressure, a pressure transducer (Statham P23XL, Grass Ins., MA, U.S.A.) was used. The heart rate was measured by a tachometer (ECG/RATE Coupler, Hugo Sachs Electronic, German) identified as Biotachometer. In addition, all of the changes occurring were continuously recorded through the Gould 2000 chart recorder ([…] Linearcorder W R 3310, Hugo Sachs Electronic). The left coronary artery was occluded according to the Selye H. method as follows. The rats underwent a left thoracotomy operation for partial opening of the chest and the right-side chest was pressurized by the middle finger of the left hand to push the heart out. Immediately after the left anterior descending coronary artery hereinafter referred to as (LAD) was carefully stitched using a suture needle with 5-0 silk ligature, the heart was then repositioned in the thoracic cavity while both ends of the ligature were situated outside. The opposite ligature ends were passed through a PE tube (PE100, 2.5 cm) and allowed to stand loose for 20 min for stabilization. Via the cannula inserted into the femoral vein, vehicles or drugs were administered into the rats which were rendered to stand for 30 min in order to sufficiently elicit the efficacies of the drugs. […] From the images input into the computer, the area of the normal blood stream tissue region which appeared blue in a computer monitor and the area which appeared colorless were measured. The percentage of the colorless area to the total area of each slice was calculated and multiplied by the weight of each slice to determine the area at risk (AAR) of each slice. […]

[1] = system: HUVECs (Human umbilical vein endothelial cells); experiment: Inhibitory effects on HUVEC tube formation; format: cell-based;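 as to tube formation: from minus no inhibition up to plus-plus-plus complete inhibition versus vehicle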
Method: The Inhibitory effects of the compounds of the formula 1 on angiogenesis were meassured by the vascular tube formation assay of HUVECs (Human umbilical vein endothelial cells), which is one of the major angiogenic steps.
HUVECs were isolated from human umbilical vein, and cultured. HUVECs within passage 5 from confluent cultures were detached, and plated onto a layer of a bFGF (basic fibroblast growth factor)-reduced and polymerized Matrigel. Matrigel cultures were incubated with or without the compounds of formula 1, and the changes of cell morphology were captured through a phase contrast microscope and photographed.

SPF SD rats = conditions: rat, in vivo, po;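 also: Six-week-old animals, two per group, followed across an observation period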
rat brain homogenate = experiment: Inhibitory activity against iron-induced lipid peroxidation (MDA); format: biochemical; conditions: 30 μM, FeCl2 400 μm
Method: In order to examine whether the compounds of the formula 1 suppress the iron-induced lipid peroxidation, experiments were conducted as follows.
The rat brain was homogenized in a Krebs buffer (15 mM HEPES, 10 mM glucose, 140 mM NaCl, 3.6 mM KCl, 1.5 mM CaCl2, 1.4 mM KH2PO4, 0.7 mM MgCl2, pH 7.4) and the supernatant separated by centrifugation at 12,000 rpm for 10 min was used for further experiments. FeCl2 was added to a final concentration of 400 μm in the brain homogenate which was then allowed to stand at 37° C. for 30 min. for the facilitation of oxidation. Each of the test compounds was added at a concentration of 30 μM and vehicle was used as a control.
Iron facilitates the oxidation of the brain homogenate to produce malondialdehyde (MDA), a lipid peroxidation product. Thus, the lipid peroxidation was determined by MDA quantification. The inhibitory effect of the test compounds against the lipid peroxidation was evaluated by calculating MDA reduction rate of the test compounds compared with that of the control group.
Typically, the MDA quantification is achieved by reacting samples with 2-thiobarbituric acid (TBA) and measuring the absorbance at 530 nm. However, this method is unsuitable to treat samples on a large scale because of a boiling step. Thus, in this experiment, N-methyl-2-phenylindole was used instead of TBA. […] Bioxytech^R LPO-586 Kit was used for MDA quantification.

[2] = system: cerebral cortical neurons; experiment: Protective activity against iron-induced neuronal damage (LDH release); format: cell-based; conditions: Rattus norvegicus, Cortical neurone, FeSO4 50 μM, 24 hours
Method: In order to examine whether the compounds of the formula 1 suppress the iron-induced neuronal damage and death, experiments were conducted as follows.
From the brains of 17-18 day-old rat embryos, cerebral cortical neurons were isolated and then, cultured at 37° C. for 7-9 days in a 5% CO2 incubator. The cortical cell cultures were washed twice with a minimum essential medium (MEM) to reduce the serum concentration to 0.2% and pre-treated with test compounds at 30, 7.5, 1.875, and 0.469 μM of final concentrations, each for 30 min. The test compounds were dissolved in DMSO and diluted in a medium. At this time, the final concentration of DMSO was not allowed to exceed 0.2%. For a control group, only vehicle was applied.
After the pre-treatment with test compounds or vehicle, FeSO4 was added to a final concentration of 50 μM, and the cultures were maintained for 24 hours in a CO2 incubator. During incubation, lactate dehydrogenase (LDH) was released into the medium upon neuronal death by the oxidative toxicity of iron. The extent of neuronal damage was assessed by measuring the amount of LDH released into the media. The protective effect of the compounds of interest on neurons was evaluated by calculating the reduction rate of released LDH of treated group compared with that of the control group, and IC50 was calculated as the least linear regression analysis of dose-response curve.

Molecule CC1(C)Oc2ccc(C#N)cc2C(N2CCCC2=O)C1O (centres unmarked) [Cromakalim] has an IC50 (isolated rat aorta) of 67 nM.

With CC1(C)Oc2ccc(C#N)cc2[C@@H](N=C(NC#N)Nc2ccc(Cl)cc2)[C@@H]1O [BMS-180448, reference compound] the “LDVP × HR (%)” value (isolated rat hearts; 30 min reperfusion, % of pretreatment DP) was 67.6%, the “TTC (time to contracture)” value (isolated rat hearts; global ischemia) was 27.8 min and the EDP (isolated rat hearts; reperfusion) was 16.5 MmHg. For the same molecule, the “LDH (reperfusion release)” value (isolated rat hearts; reperfusion) was 17.2 U/g, the IC50 (isolated rat aorta) was 1380 nM and the “AAR/LV (%)” value (ischemic hearts) was 38.8%. For the same molecule, the “IZ/AAR (%)” value (ischemic hearts) was 39.1%.

With COC(OC)[C@@]1(C)Oc2ccc(N)cc2[C@@H](N(Cc2ncc[nH]2)c2ccc(Cl)cc2)[C@@H]1O [Example 24, (2S,3S,4R)-6-amino-3,4-dihydro-2-dimethoxymethyl-3-hydroxy-2-methyl-4-[N-(4-chlorophenyl)-N-(1H-imidazol-2-ylmethyl)amino]-2H-1-benzopyran] the Tube formation ([1]; 10 μM) was “+”, the Tube formation ([1]; 100 μM) was “+” and the “clinical symptoms, body weight and mortality” value (SPF SD rats) was “no significant changes”. For the same molecule, the “% Inhibition of lipid peroxidation by iron” value (rat brain homogenate) was 83%.

With COC(OC)[C@@]1(C)Oc2ccc([N+](=O)[O-])cc2[C@H](N(Cc2ncc[nH]2)c2ccc(Cl)cc2)[C@H]1O [Example 2, (2S,3R,4S)-3,4-dihydro-2-dimethoxymethyl-3-hydroxy-2-methyl-6-nitro-4-[N-(4-chlorophenyl)-N-(1H-imidazol-2-ylmethyl)amino]-2H-1-benzopyran] the “inhibitory effect on HUVEC tube formation” value ([1]; 10 uM) was “strong inhibition”, the Tube formation ([1]; 10 μM) was “++” and the “inhibitory effect on HUVEC tube formation” value ([1]; 100 uM) was “complete inhibition”. For the same molecule, the Tube formation ([1]; 100 μM) was “+++”, the “clinical symptoms, body weight and mortality” value (SPF SD rats) was “no significant changes” and the inhibition at 30 µM ([2]; 30 μM, read-out: Neuroprotection inhibition % (LDH release)) was 92%. For the same molecule, the IC50 ([2]; read-out: Neuroprotection IC50) was 6.2 µM.

Molecule CC1(C)Oc2ccc(C#N)cc2C(N(Cc2ncc[nH]2)c2ccc(Cl)cc2)[C@H]1O (some centres unmarked) [BMS-191095] has an IC50 (isolated rat aorta) of 2140 nM.
